These are literature values, as cited in patent US20230404934A1, “ON DEMAND AND LONG-TERM DRUG DELIVERY FROM DEGRADABLE NANOCAPSULES” (University of Maryland, Baltimore County, priority 2020, published 2023).

The structures appear in SMILES notation.

For the data set the following is noted: topical to the eye.

For `Cc1ccc(=O)n(-c2ccccc2)c1` [pirfenidone, 5-methyl-1-phenylpyridin-2-one], the “amount in the back of the eye after topical administration” value is “no measurable amounts in the back of the eye” and the “washout from the eye after topical administration” value is given as “washes out very quickly, within minutes”.
